Experimental data as given in patent publication US20080269266A1, “NOVEL COMPOUNDS 747” (ASTRAZENECA AB, priority 2007, published 2008).

Columns and labels:
human IR = biological target: T1, human IR (Homo sapiens, UniProt P06213); experiment: Inhibition of Insulin Receptor Phosphorylation in CHOT cells; assay type: cell-based; conditions: for IC50: median, CHOT cells stimulated with 30 nM Insulin
T1 construct: expressed in transfected cells; host or cells: CHOT cells (CHO stably transfected with human IR)
T1 sequence (P06213 28-1382): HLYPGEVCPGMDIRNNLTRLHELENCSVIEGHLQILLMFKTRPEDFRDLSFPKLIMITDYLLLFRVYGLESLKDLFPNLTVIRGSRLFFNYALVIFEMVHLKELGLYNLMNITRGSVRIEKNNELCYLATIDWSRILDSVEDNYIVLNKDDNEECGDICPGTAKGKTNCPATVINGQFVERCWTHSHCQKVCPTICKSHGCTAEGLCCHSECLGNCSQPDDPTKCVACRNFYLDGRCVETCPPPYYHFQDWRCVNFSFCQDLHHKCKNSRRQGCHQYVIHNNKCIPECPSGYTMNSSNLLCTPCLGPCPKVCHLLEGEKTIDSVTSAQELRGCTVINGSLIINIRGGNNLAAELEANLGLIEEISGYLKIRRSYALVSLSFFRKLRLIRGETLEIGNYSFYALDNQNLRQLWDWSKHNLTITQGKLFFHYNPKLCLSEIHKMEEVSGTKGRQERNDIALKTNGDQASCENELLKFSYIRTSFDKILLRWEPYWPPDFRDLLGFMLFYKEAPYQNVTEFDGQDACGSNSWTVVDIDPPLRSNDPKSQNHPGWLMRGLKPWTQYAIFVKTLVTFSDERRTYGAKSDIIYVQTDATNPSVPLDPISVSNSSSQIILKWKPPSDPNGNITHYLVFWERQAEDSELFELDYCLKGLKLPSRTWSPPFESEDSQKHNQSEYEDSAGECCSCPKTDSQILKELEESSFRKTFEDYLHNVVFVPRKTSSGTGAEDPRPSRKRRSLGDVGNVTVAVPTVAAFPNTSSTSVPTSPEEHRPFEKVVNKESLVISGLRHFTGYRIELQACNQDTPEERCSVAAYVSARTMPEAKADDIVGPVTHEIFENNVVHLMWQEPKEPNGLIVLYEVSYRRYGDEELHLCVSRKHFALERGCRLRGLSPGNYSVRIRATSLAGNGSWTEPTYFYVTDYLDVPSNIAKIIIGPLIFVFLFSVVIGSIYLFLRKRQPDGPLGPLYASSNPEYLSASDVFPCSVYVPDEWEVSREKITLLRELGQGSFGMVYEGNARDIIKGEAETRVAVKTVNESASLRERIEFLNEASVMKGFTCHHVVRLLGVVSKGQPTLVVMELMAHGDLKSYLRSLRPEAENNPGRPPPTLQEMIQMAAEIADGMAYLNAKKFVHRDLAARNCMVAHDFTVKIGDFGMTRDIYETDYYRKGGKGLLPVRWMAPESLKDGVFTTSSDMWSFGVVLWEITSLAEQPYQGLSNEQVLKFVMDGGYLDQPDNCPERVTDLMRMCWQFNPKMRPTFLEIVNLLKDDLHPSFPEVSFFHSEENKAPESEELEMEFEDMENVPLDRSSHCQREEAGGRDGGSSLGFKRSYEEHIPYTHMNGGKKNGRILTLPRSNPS
Procedure: This immunofluorescence end point cell assay measures the ability of a test compound to reduce the measured levels of IR phosphorylation after insulin stimulation in CHOT cells. CHOT cells are Chinese Hamster Ovary cells (CHO) stable transfected with human IR. CHOT cells are routinely cultured in Hams F12 growth medium supplemented with 200 ug/ml Geneticin, 2.5 mM HEPES, 2 mM L-Glutamine (Invitrogen Code no. 25030-024) and 10% (v/v) foetal bovine serum (FBS) in a 5% CO2 air incubator at 37° C.
To undertake the assay, the CHOT cells are seeded at 5×10^3 cells/well in Hams F12 medium plus 2.5 mM HEPES, 1% foetal calf serum and 2 mM L-Glutamine in 96-well black Packard View plates (PerkinElmer 6005182) and incubated at 37° C. (+5% CO2) in a humidified incubator. The following day, the plates are dosed with 10 μl of 10× concentrated compound (diluted from 10 mM stock in DMSO and Hams F12 without serum) and the plates are returned to a humidified 37° C. (+5% CO2) incubator for 30 minutes. […]
Following the compound treatment, the CHOT cells are stimulated with a final concentration of 30 nM Insulin (Sigma #I-9278) for 10 minutes at 37° C. […] Additionally, in-house antibodies raised against phospho IR were also used at a suitable titre determined for each batch. […]
The Green Fluorescent phospho IR-associated signal in each well was measured using an Acumen Explorer HTS Reader (TTP Labtech Ltd., Cambridge). Phospho IR-associated fluorescence emission can be detected at 530 nm following excitation at 488 nm. The instrument is a laser-scanning fluorescence microplate cytometer, which samples the well at regular intervals and uses threshold algorithms to identify all fluorescent intensities above the solution background without the need to generate and analyse an image. These fluorescent objects can be quantified and provide a measure of the phospho IR levels in cells. Fluorescence dose response data obtained with each compound was exported into a suitable software package (such as Origin) to perform curve fitting analysis. […]

[1] = biological target: T2, human cytochrome P450 (CYP) 2D6 (Homo sapiens, UniProt P10635); experiment: Cytochrome P450 Inhibition Assay 2D6; assay type: in vitro ADME; conditions: test compound final concentrations 0.1-10 μM; substrate MAMC
T2 construct: made in house; host or cells: yeast cell lines (microsomal fractions)
T2 sequence (P10635 whole entry): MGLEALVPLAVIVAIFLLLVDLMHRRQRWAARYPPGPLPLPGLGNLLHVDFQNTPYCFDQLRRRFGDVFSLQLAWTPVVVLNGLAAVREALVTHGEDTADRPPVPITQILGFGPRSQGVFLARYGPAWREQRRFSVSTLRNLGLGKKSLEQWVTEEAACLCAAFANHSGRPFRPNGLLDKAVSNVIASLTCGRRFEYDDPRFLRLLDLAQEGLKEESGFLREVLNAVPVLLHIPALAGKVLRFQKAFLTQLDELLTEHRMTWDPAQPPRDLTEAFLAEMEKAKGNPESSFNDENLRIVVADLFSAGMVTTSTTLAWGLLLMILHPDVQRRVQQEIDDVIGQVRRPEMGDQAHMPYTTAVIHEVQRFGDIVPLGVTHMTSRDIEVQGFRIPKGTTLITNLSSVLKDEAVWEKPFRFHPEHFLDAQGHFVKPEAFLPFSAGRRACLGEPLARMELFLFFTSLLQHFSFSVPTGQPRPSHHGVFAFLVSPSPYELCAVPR
Procedure: (§1) The inhibitory potential (IC50) of test compounds against 5 human cytochrome P450 (CYP) isoforms (1A2, 2C9, 2C19, 3A4 and 2D6) was assessed using an automated fluorescent end point in vitro assay modified from Crespi (Crespi and Stresser, 2000). Microsomal subcellular fractions prepared from Yeast cell lines expressing each human CYP isoform were used as an enzyme source in this assay. The activity of the 5 major human CYPs was determined from the biotransformation of a number of coumarin substrates to fluorescent metabolites, in the presence of NADPH. […] Stock solutions of each CYP, with its respective substrate, were prepared in phosphate buffer pH7.4 (see Table 1) and 178 μl was added to the well of a black solid, flat bottom, 300 μl 96 well is microtitre plate (Corning Costar). […] After pre-incubating at 37° C. for 5 min the reactions were started with addition of NADPH (20 μl, concentration shown in Table 1). […] The appropriate solvent controls and substrate blanks were included in each experiment to assess control activity and identify any inherent fluorescence due to the test compounds. […] The plates were read on a fluorimeter (Spectrafluor Plus) at the appropriate excitation and emission wavelengths (listed in Table 2) and the percent activity, corrected for control, was plotted against the test compound concentration.

[2] = biological target: T3, human cytochrome P450 (CYP) 3A4 (Homo sapiens, UniProt P08684); experiment: Cytochrome P450 Inhibition Assay 3A4; assay type: in vitro ADME; conditions: test compound final concentrations 0.1-10 μM; substrate BFC
T3 construct: made in house; host or cells: yeast cell lines (microsomal fractions)
T3 sequence (P08684 whole entry): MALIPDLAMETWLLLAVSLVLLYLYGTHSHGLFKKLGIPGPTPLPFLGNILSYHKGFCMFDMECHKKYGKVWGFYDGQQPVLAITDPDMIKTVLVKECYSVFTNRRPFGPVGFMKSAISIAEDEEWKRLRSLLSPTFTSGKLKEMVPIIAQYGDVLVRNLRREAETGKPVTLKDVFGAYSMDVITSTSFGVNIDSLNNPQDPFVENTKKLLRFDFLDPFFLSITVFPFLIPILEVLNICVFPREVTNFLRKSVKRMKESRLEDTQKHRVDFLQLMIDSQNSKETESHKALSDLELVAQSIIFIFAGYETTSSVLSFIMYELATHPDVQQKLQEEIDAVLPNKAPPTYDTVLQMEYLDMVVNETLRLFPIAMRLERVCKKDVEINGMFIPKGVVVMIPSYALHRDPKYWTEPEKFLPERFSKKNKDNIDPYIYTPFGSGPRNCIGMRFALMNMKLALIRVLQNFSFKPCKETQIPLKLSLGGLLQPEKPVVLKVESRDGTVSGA
Procedure: as §1

[3] = biological target: T4, human cytochrome P450 (CYP) 2C19 (Homo sapiens, UniProt P33261); experiment: Cytochrome P450 Inhibition Assay 2C19; assay type: in vitro ADME; conditions: test compound final concentrations 0.1-10 μM; substrate MFC; read-out: Ic50 2C19
T4 construct: made in house; host or cells: yeast cell lines (microsomal fractions)
T4 sequence (P33261 whole entry): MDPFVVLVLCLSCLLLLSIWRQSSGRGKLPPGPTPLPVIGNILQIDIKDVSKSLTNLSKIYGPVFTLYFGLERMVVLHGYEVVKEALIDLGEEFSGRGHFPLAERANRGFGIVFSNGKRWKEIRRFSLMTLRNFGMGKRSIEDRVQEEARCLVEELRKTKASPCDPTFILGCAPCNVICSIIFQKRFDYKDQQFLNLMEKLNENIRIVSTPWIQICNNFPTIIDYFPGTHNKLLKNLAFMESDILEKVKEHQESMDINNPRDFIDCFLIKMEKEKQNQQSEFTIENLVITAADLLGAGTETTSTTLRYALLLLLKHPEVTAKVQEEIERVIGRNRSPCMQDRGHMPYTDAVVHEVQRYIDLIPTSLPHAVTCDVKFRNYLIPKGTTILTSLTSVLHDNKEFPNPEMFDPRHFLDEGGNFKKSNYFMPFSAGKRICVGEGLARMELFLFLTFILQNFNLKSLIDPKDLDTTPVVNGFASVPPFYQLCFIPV
Procedure: The inhibitory potential (IC50) of test compounds against 5 human cytochrome P450 (CYP) isoforms (1A2, 2C9, 2C19, 3A4 and 2D6) was assessed using an automated fluorescent end point in vitro assay modified from Crespi (Crespi and Stresser, 2000). Microsomal subcellular fractions prepared from Yeast cell lines expressing each human CYP isoform were used as an enzyme source in this assay. The activity of the 5 major human CYPs was determined from the biotransformation of a number of coumarin substrates to fluorescent metabolites, in the presence of NADPH. […] Stock solutions of each CYP, with its respective substrate, were prepared in phosphate buffer pH7.4 (see Table 1) and 178 μl was added to the well of a black solid, flat bottom, 300 μl 96 well is microtitre plate (Corning Costar). […] After pre-incubating at 37° C. for 5 min the reactions were started with addition of NADPH (20 μl, concentration shown in Table 1). The final solvent content in each incubation was <=2% (1% from the test compound and a maximum of 1% from the substrate). The appropriate solvent controls and substrate blanks were included in each experiment to assess control activity and identify any inherent fluorescence due to the test compounds. In addition, known inhibitors of each CYP were included as positive controls (see Table 3 for inhibitor concentrations and expected IC50 ranges). The reactions were stopped at defined timepoints (see Table 1) by quenching with 100 μl of solvent (acetonitrile:0.5M Tris buffer 80:20 v/v). The plates were read on a fluorimeter (Spectrafluor Plus) at the appropriate excitation and emission wavelengths (listed in Table 2) and the percent activity, corrected for control, was plotted against the test compound concentration.

[4] = biological target: T5, human cytochrome P450 (CYP) 2C9 (Homo sapiens, UniProt P11712); experiment: Cytochrome P450 Inhibition Assay 2C9; assay type: in vitro ADME; conditions: test compound final concentrations 0.1-10 μM; substrate MFC
T5 construct: made in house; host or cells: yeast cell lines (microsomal fractions)
T5 sequence (P11712 whole entry): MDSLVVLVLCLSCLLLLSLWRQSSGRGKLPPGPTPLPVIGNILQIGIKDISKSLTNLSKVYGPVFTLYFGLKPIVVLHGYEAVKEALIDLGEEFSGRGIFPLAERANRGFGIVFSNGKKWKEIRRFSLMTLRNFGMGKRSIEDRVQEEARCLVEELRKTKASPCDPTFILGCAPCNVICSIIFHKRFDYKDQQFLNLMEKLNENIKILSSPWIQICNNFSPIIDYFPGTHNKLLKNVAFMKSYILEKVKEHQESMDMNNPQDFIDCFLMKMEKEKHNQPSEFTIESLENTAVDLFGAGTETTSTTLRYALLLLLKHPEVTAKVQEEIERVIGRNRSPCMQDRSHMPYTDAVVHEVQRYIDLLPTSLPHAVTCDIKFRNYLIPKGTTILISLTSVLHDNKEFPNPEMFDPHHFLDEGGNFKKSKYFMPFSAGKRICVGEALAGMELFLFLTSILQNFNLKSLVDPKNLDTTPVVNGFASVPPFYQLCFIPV
Procedure: as §1

With COc1cc(Nc2cc(C)n[nH]2)nc(N2CCC[C@H]2c2cc(-c3ncccn3)no2)n1 [Example 1, (S)-6-Methoxy-2-{2-[3-(pyrimid-2-yl)isoxazol-5-yl]pyrrolidin-1-yl}-4-(5-methyl-1H-pyrazol-3-ylamino)pyrimidine] the “difference in the Inhibition of Insulin Receptor Phosphorylation assay” value (human IR; Example 1 compared with Comparative Example A) was “ten-fold”, the IC50 (human IR) was 35 nM and the IC50 [1] was over 10 µM. The IC50 [2] was over 10 µM, the IC50 [3] was over 10 µM and the IC50 [4] was over 10 µM.
CCc1cc(Nc2cc(OC)nc(N3CCC[C@H]3c3cc(-c4ncccn4)no3)n2)n[nH]1 [Comparative Example A, (S)-6-Methoxy-2-{2-[3-(pyrimid-2-yl)isoxazol-5-yl]pyrrolidin-1-yl}-4-(5-ethyl-1H-pyrazol-3-ylamino)pyrimidine] showed an IC50 (human IR) of 3.25 nM, an IC50 [1] of over 10 µM and an IC50 [2] of over 10 µM. It also gave an IC50 [3] of over 10 µM and an IC50 [4] of over 10 µM.
